According to patent publication US7868023B2, “Thiophene sulfoximines, compositions thereof, and methods of treating complement-mediated diseases and conditions” (Janssen Pharmaceutica NV, priority 2005, dated 2011):

Columns and labels:
[1] = target: T1, activated human C1s (Homo sapiens, UniProt P09871); test: In vitro inhibition of C1s (Ki determination, Z-Gly-Arg-S-Bzl hydrolysis, DTNB readout); type: biochemical; settings: substrate Z-Gly-Arg-S-Bzl 45 μM, 37° C., pH 7.5
T1 construct: purchased Calbiochem (La Jolla, Calif.)
T1 sequence (P09871 438-688 limits assumed): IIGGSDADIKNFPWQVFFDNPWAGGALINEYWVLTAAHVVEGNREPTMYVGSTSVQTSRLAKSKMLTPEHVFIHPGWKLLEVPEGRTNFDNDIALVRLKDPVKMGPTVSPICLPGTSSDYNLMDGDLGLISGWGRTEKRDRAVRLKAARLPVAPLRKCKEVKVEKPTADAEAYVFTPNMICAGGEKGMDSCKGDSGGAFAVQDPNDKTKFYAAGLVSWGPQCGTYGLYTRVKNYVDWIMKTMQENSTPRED
T1 sequence (P09871 16-437 limits assumed): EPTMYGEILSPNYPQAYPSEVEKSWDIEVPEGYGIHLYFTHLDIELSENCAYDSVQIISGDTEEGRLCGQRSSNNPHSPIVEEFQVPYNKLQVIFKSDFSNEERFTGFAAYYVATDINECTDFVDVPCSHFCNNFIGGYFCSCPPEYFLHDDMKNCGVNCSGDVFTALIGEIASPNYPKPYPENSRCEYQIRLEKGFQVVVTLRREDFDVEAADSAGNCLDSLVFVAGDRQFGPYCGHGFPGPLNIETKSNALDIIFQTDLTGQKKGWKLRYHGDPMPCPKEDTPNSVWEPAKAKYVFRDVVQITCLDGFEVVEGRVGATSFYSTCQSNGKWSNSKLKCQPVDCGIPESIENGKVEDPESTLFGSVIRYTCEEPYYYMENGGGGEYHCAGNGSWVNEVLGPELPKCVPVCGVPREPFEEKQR
Source text: Reagents: All buffer salts were obtained from Sigma Chemical Company (St. Louis, Mo.), and were of the highest purity available. DTNB was purchased from Pierce (Rockford, Ill.). Z-Gly-Arg-S-Bzl was purchased from Enzyme Systems Products (Livermore, Calif.). Activated human C1s was purchased from Calbiochem (La Jolla, Calif.).
Ki Determinations All assays were based on the ability of the test compound to inhibit the C1s-catalyzed hydrolysis of the substrate Z-Gly-Arg-S-Bzl, which was observed via a secondary reaction with 5,5′-dithio-bis(2-nitrobenzoic acid) (DTNB). […]
(§1) In a typical Ki determination, into each well of a 96-well plate was pipetted 280 μL of substrate solution, 10 μL of test compound solution, and the plate allowed to thermally equilibrate at 37° C. for 15 minutes. Reactions were initiated by the addition of a 10 μL aliquot of the enzyme, and the absorbance increase at 405 nm was continuously recorded for 15 minutes in a Molecular Devices plate reader. […] The ratio of the velocity (rate of change in absorbance as a function of time) for a sample containing no test compound was divided by the velocity of a sample containing test compound, and was plotted as a function of test compound concentration. The data were fit to a linear regression, and the value of the slope of the line calculated. The inverse of the slope was the experimentally determined Ki value.

[2] = target: T2, human MASP-2 (Homo sapiens, UniProt O00187); test: In vitro inhibition of MASP-2 (Ki determination, Z-Gly-Arg-S-Bzl hydrolysis, DTNB readout); type: biochemical; settings: substrate Z-Gly-Arg-S-Bzl 45 μM, 37° C., pH 7.5; Ki app corrected for true Ki
T2 construct: His-tag; made in house; host or cells: Baculovirus expression system in insect cells
T2 sequence (O00187 300-686): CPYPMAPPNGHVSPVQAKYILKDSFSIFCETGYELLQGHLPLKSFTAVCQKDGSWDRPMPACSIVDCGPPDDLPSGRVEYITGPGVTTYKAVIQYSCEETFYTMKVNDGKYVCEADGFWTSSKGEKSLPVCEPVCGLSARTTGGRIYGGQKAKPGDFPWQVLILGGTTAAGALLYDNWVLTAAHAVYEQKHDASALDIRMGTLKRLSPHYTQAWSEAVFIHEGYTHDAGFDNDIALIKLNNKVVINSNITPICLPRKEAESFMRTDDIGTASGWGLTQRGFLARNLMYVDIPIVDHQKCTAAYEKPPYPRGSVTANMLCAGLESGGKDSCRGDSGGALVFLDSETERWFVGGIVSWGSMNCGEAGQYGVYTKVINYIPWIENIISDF
T2 sequence (O00187 300-444): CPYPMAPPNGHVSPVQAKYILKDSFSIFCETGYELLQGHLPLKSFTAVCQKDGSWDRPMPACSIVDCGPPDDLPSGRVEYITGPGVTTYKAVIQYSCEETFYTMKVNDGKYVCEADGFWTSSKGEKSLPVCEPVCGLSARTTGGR
Source text: Reagents: All buffer salts were obtained from Sigma Chemical Company (St. Louis, Mo.), and were of the highest purity available. DTNB was purchased from Pierce (Rockford, Ill.). Z-Gly-Arg-S-Bzl was purchased from Enzyme Systems Products (Livermore, Calif.). Autoactivated 2-chain human MASP-2 (His-tag, Cys300-Phe686) was produced in-house from a Baculovirus expression system in insect cells.
Ki Determinations All assays were based on the ability of the test compound to inhibit the MASP-2-catalyzed hydrolysis of the substrate Z-Gly-Arg-S-Bzl, which was observed via a secondary reaction with 5,5′-dithio-bis(2-nitrobenzoic acid) (DTNB). […]
as §1, with “of substrate solution followed by 10 μL” for “of substrate solution, 10 μL”, “the plate was allowed to” for “the plate allowed to”, “C. for 10 minutes. Reactions” for “C. for 15 minutes. Reactions”, “line calculated. […]” for “line calculated. The inverse of the slope was the experimentally determined Ki value.”

Ki [1] [nM]	Ki [2] [nM]	Structure (SMILES)
10	–	CSc1sc(C(=N)N)cc1S(=O)(=NS(=O)(=O)c1cccc([N+](=O)[O-])c1)c1cccc(-c2ccc(NC(=N)N)cc2C)c1 (stereo not drawn) [Example 46, 4-[S-[3-(4-guanidino-6-methyl-phenyl)phenyl]-N-(3-nitrobenzene-sulfonyl)sulfoximino]-5-methylsulfanyl-thiophene-2-carboxamidine bistrifluoroacetate]
11	440	CSc1sc(C(=N)N)cc1S(=O)(=NS(=O)(=O)c1cccc(NC(N)=O)c1)c1cccc(-c2c(C)cc(NC(=N)N)cc2N)c1 (stereo not drawn) [Example 18, 4-[S-[3-(2-Amino-4-guanidino-6-methyl-phenyl)phenyl]-N-(3-ureidobenzene-sulfonyl)sulfoxamino]-5-methylsulfanyl-thiophene-2-carboxamidine bistrifluoroacetate]
